Assay: xn = mol fraction of the nth substance listed
Settings: 101 kPa, Liquid; for viscosity: Capillary tube (Ostwald / Ubbelohde) method; for speed of sound: Frequency=3 MHz, Linear variable-path acoustic interferometer

Cc1cc(C)cc(C)c1 [1,3,5-trimethylbenzene] + C1COCCO1
Settings | speed of sound [m/s] | viscosity [mPa·s]
293.15 K, x2 = 0 | 1360.4 | 0.7056
293.15 K, x2 = 0.0696 | 1354.2 | 0.7332
293.15 K, x2 = 0.1408 | 1348.2 | 0.7648
293.15 K, x2 = 0.2098 | 1342.8 | 0.7974
293.15 K, x2 = 0.28 | 1337.8 | 0.8326
293.15 K, x2 = 0.3558 | 1333.1 | 0.8728
293.15 K, x2 = 0.4276 | 1329.3 | 0.9131
293.15 K, x2 = 0.5066 | 1326.5 | 0.9597
293.15 K, x2 = 0.5801 | 1325 | 1.005
293.15 K, x2 = 0.6548 | 1325.4 | 1.054
293.15 K, x2 = 0.7227 | 1327.5 | 1.099
293.15 K, x2 = 0.7936 | 1332 | 1.149
293.15 K, x2 = 0.8663 | 1340 | 1.202
293.15 K, x2 = 0.9319 | 1351 | 1.252
298.15 K, x2 = 0 | 1339.8 | 0.6592
298.15 K, x2 = 0.0696 | 1333.4 | 0.6835
298.15 K, x2 = 0.1408 | 1327.5 | 0.7112
298.15 K, x2 = 0.2098 | 1322.1 | 0.7398
298.15 K, x2 = 0.28 | 1317.1 | 0.7712
298.15 K, x2 = 0.3558 | 1312.5 | 0.8066
298.15 K, x2 = 0.4276 | 1308.9 | 0.8422
298.15 K, x2 = 0.5066 | 1306 | 0.8838
298.15 K, x2 = 0.5801 | 1304.5 | 0.9244
298.15 K, x2 = 0.6548 | 1304.7 | 0.9678
298.15 K, x2 = 0.7227 | 1306.5 | 1.009
298.15 K, x2 = 0.7936 | 1310.8 | 1.053
298.15 K, x2 = 0.8663 | 1318.5 | 1.101
298.15 K, x2 = 0.9319 | 1329 | 1.146
303.15 K, x2 = 0 | 1319.6 | 0.6188
303.15 K, x2 = 0.0696 | 1313.2 | 0.6405
303.15 K, x2 = 0.1408 | 1307.3 | 0.6646
303.15 K, x2 = 0.2098 | 1301.9 | 0.6896
303.15 K, x2 = 0.28 | 1297.1 | 0.7168
303.15 K, x2 = 0.3558 | 1292.5 | 0.7483
303.15 K, x2 = 0.4276 | 1288.9 | 0.78
303.15 K, x2 = 0.5066 | 1286 | 0.8167
303.15 K, x2 = 0.5801 | 1284.5 | 0.8532
303.15 K, x2 = 0.6548 | 1284.6 | 0.8918
303.15 K, x2 = 0.7227 | 1286.4 | 0.9287
303.15 K, x2 = 0.7936 | 1290.3 | 0.9688
303.15 K, x2 = 0.8663 | 1297.6 | 1.012
303.15 K, x2 = 0.9319 | 1307.8 | 1.052
308.15 K, x2 = 0 | 1300.2 | 0.5792
308.15 K, x2 = 0.0696 | 1294 | 0.5994
308.15 K, x2 = 0.1408 | 1287.9 | 0.6212
308.15 K, x2 = 0.2098 | 1282.6 | 0.6438
308.15 K, x2 = 0.28 | 1277.6 | 0.6685
308.15 K, x2 = 0.3558 | 1273 | 0.6966
308.15 K, x2 = 0.4276 | 1269.2 | 0.7253
308.15 K, x2 = 0.5066 | 1266.3 | 0.7589
308.15 K, x2 = 0.5801 | 1264.6 | 0.7918
308.15 K, x2 = 0.6548 | 1264.7 | 0.8274
308.15 K, x2 = 0.7227 | 1266.2 | 0.8612
308.15 K, x2 = 0.7936 | 1270 | 0.8982
308.15 K, x2 = 0.8663 | 1277 | 0.9376
308.15 K, x2 = 0.9319 | 1286.7 | 0.9752
313.15 K, x2 = 0 | 1280.4 | 0.5422
313.15 K, x2 = 0.0696 | 1274.3 | 0.5609
313.15 K, x2 = 0.1408 | 1268.3 | 0.5813
313.15 K, x2 = 0.2098 | 1262.9 | 0.6022
313.15 K, x2 = 0.28 | 1258 | 0.6248
313.15 K, x2 = 0.3558 | 1253.3 | 0.651
313.15 K, x2 = 0.4276 | 1249.6 | 0.6774
313.15 K, x2 = 0.5066 | 1246.4 | 0.7084
313.15 K, x2 = 0.5801 | 1244.7 | 0.7391
313.15 K, x2 = 0.6548 | 1244.6 | 0.7717
313.15 K, x2 = 0.7227 | 1246.1 | 0.8032
313.15 K, x2 = 0.7936 | 1249.9 | 0.8372
313.15 K, x2 = 0.8663 | 1256.5 | 0.874
313.15 K, x2 = 0.9319 | 1265.7 | 0.9088
318.15 K, x2 = 0 | 1263 | 0.5066
318.15 K, x2 = 0.0696 | 1256.9 | 0.5246
318.15 K, x2 = 0.1408 | 1250.8 | 0.5436
318.15 K, x2 = 0.2098 | 1245.3 | 0.5634
318.15 K, x2 = 0.28 | 1240.3 | 0.5846
318.15 K, x2 = 0.3558 | 1235.4 | 0.6092
318.15 K, x2 = 0.4276 | 1231.5 | 0.6342
318.15 K, x2 = 0.5066 | 1228.3 | 0.6632
318.15 K, x2 = 0.5801 | 1226.4 | 0.692
318.15 K, x2 = 0.6548 | 1226 | 0.7224
318.15 K, x2 = 0.7227 | 1227.1 | 0.7515
318.15 K, x2 = 0.7936 | 1230.5 | 0.7836
318.15 K, x2 = 0.8663 | 1236.7 | 0.8178
318.15 K, x2 = 0.9319 | 1245.3 | 0.8501

Cc1cccc(C)c1 [1,3-dimethylbenzene] + C1COCCO1
Settings | speed of sound [m/s] | viscosity [mPa·s]
293.15 K, x2 = 0 | 1346.7 | 0.6184
293.15 K, x2 = 0.0938 | 1341.2 | 0.674
293.15 K, x2 = 0.1532 | 1338.2 | 0.7104
293.15 K, x2 = 0.2046 | 1335.9 | 0.7427
293.15 K, x2 = 0.2698 | 1333.4 | 0.7843
293.15 K, x2 = 0.3374 | 1331.4 | 0.8284
293.15 K, x2 = 0.4002 | 1330.1 | 0.8702
293.15 K, x2 = 0.4714 | 1329.3 | 0.9186
293.15 K, x2 = 0.5487 | 1329.6 | 0.9721
293.15 K, x2 = 0.63 | 1331.2 | 1.03
293.15 K, x2 = 0.7182 | 1335 | 1.093
293.15 K, x2 = 0.8035 | 1341 | 1.156
293.15 K, x2 = 0.8708 | 1347.8 | 1.207
293.15 K, x2 = 0.9324 | 1355.8 | 1.254
298.15 K, x2 = 0 | 1323.6 | 0.584
298.15 K, x2 = 0.0938 | 1318.3 | 0.633
298.15 K, x2 = 0.1532 | 1315.4 | 0.6651
298.15 K, x2 = 0.2046 | 1313.2 | 0.6934
298.15 K, x2 = 0.2698 | 1310.8 | 0.7303
298.15 K, x2 = 0.3374 | 1308.8 | 0.7694
298.15 K, x2 = 0.4002 | 1307.6 | 0.8064
298.15 K, x2 = 0.4714 | 1307 | 0.8493
298.15 K, x2 = 0.5487 | 1307.3 | 0.8968
298.15 K, x2 = 0.63 | 1309.1 | 0.948
298.15 K, x2 = 0.7182 | 1312.9 | 1.005
298.15 K, x2 = 0.8035 | 1318.8 | 1.061
298.15 K, x2 = 0.8708 | 1325.5 | 1.106
298.15 K, x2 = 0.9324 | 1333.5 | 1.148
303.15 K, x2 = 0 | 1302.4 | 0.5517
303.15 K, x2 = 0.0938 | 1297.2 | 0.5953
303.15 K, x2 = 0.1532 | 1294.4 | 0.6236
303.15 K, x2 = 0.2046 | 1292.2 | 0.6487
303.15 K, x2 = 0.2698 | 1289.8 | 0.6811
303.15 K, x2 = 0.3374 | 1287.9 | 0.7159
303.15 K, x2 = 0.4002 | 1286.6 | 0.7488
303.15 K, x2 = 0.4714 | 1286 | 0.787
303.15 K, x2 = 0.5487 | 1286.3 | 0.8293
303.15 K, x2 = 0.63 | 1288.1 | 0.875
303.15 K, x2 = 0.7182 | 1291.9 | 0.9258
303.15 K, x2 = 0.8035 | 1297.7 | 0.976
303.15 K, x2 = 0.8708 | 1304.4 | 1.016
303.15 K, x2 = 0.9324 | 1312.2 | 1.054
308.15 K, x2 = 0 | 1282.3 | 0.5229
308.15 K, x2 = 0.0938 | 1277.1 | 0.5621
308.15 K, x2 = 0.1532 | 1274.3 | 0.5875
308.15 K, x2 = 0.2046 | 1272.1 | 0.6101
308.15 K, x2 = 0.2698 | 1269.7 | 0.6392
308.15 K, x2 = 0.3374 | 1267.8 | 0.6706
308.15 K, x2 = 0.4002 | 1266.5 | 0.7002
308.15 K, x2 = 0.4714 | 1265.8 | 0.7347
308.15 K, x2 = 0.5487 | 1266 | 0.773
308.15 K, x2 = 0.63 | 1267.7 | 0.8144
308.15 K, x2 = 0.7182 | 1271.2 | 0.8604
308.15 K, x2 = 0.8035 | 1276.9 | 0.9061
308.15 K, x2 = 0.8708 | 1283.2 | 0.943
308.15 K, x2 = 0.9324 | 1290.7 | 0.9769
313.15 K, x2 = 0 | 1262.3 | 0.4938
313.15 K, x2 = 0.0938 | 1257.2 | 0.5297
313.15 K, x2 = 0.1532 | 1254.3 | 0.553
313.15 K, x2 = 0.2046 | 1252.2 | 0.5737
313.15 K, x2 = 0.2698 | 1249.8 | 0.6005
313.15 K, x2 = 0.3374 | 1247.9 | 0.6291
313.15 K, x2 = 0.4002 | 1246.6 | 0.6563
313.15 K, x2 = 0.4714 | 1245.8 | 0.688
313.15 K, x2 = 0.5487 | 1246 | 0.7231
313.15 K, x2 = 0.63 | 1247.5 | 0.7611
313.15 K, x2 = 0.7182 | 1250.9 | 0.8034
313.15 K, x2 = 0.8035 | 1256.4 | 0.8453
313.15 K, x2 = 0.8708 | 1262.4 | 0.8793
313.15 K, x2 = 0.9324 | 1269.6 | 0.9105
318.15 K, x2 = 0 | 1243 | 0.468
318.15 K, x2 = 0.0938 | 1237.9 | 0.501
318.15 K, x2 = 0.1532 | 1235.1 | 0.5226
318.15 K, x2 = 0.2046 | 1232.9 | 0.5416
318.15 K, x2 = 0.2698 | 1230.5 | 0.5665
318.15 K, x2 = 0.3374 | 1228.5 | 0.5928
318.15 K, x2 = 0.4002 | 1227.2 | 0.6178
318.15 K, x2 = 0.4714 | 1226.4 | 0.647
318.15 K, x2 = 0.5487 | 1226.5 | 0.6794
318.15 K, x2 = 0.63 | 1227.9 | 0.7144
318.15 K, x2 = 0.7182 | 1231.1 | 0.7535
318.15 K, x2 = 0.8035 | 1236.2 | 0.7922
318.15 K, x2 = 0.8708 | 1242 | 0.8232
318.15 K, x2 = 0.9324 | 1248.9 | 0.852
